These are literature values, as cited in patent US6638431B2, “Formulation and method for treating wetted surface elements in climate control systems” (Mainstream Engineering Corporation, priority 2001, dated 2003).

The structures appear in SMILES notation.

For the data set, the system named is Legionella pneumophilia.

As for `[Ag]` [Ag, silver], the “concentration in water effective against Legionella pneumophilia” value is given as “about 0.02 ppm”.
